Assay [1] concerns the target T1, HIV-1 myrMA (Human immunodeficiency virus type 1 group M subtype B, UniProt P12493). The conditions noted are these: for binding to myrMA (changes in NMR spectra upon titration): 1H-15N HSQC titration; for triggering of myristate exposure: NMR; for Kd: read-out: dissociation constant (Kd), fit to 1:1 binding isotherms, 35° C., pH 5.5. The method, then:
(§1) HIV-1 myrMA and myr(−)MA proteins were prepared as described (19, 37). Phosphoinositides PI(4,5)P2, di-C4-PI(4,5)P2, di-C8-PI(4,5)P2, di-C4-PI, di-C4-PI(3)P, di-C4-PI(4)P, di-C4-PI(5)P, di-C4-PI(3,5)P2, di-C8-PI(3,4,5)P2, and di-C4-PI (Echelon, Salt Lake City, Utah) and di-C4-phosphatidylcholine (Avanti Polar Lipids) were obtained commercially and used without further purification. Samples for all NMR experiments were prepared in 50 mM sodium phosphate at pH 5.5 and 5 mM DTT.
(§2) NMR data [Bruker DRX (Billerica, Mass.); 800 MHz ^1H and DMX 600 MHz ^1H spectrometers equipped with cryoprobes] were obtained from a combination of 2D, 3D, and 4D NOESY data, for combinations of natural abundance; ^15N-, ^15N-, and ^13C-labeled protein samples (35° C.). Protein signals were assigned as described (19, 37). Phosphoinositide signals were assigned from 2D heteronuclear multiple-quantum coherence (HMQC), heteronuclear multiple bond correlation (HMBC), NOESY, total correlation spectroscopy (TOCSY), and COSY data (the ^1H and ^13C NMR signals of the 1′- and 2′-acyl chains were resolved in the 2D spectra), and intra- and intermolecular ^1H-^1H NOEs were assigned from 2D (^1H-^1H), 3D (^13C-, ^15N-, and ^13C-edited/^12C-double-half-filtered), and 4D ([…] and ^13C/^13C-edited) NOESY data (39, 40). Binding isotherms from ^1H-^15N NMR HSQC titration experiments were calculated with ORIGIN 7.0 software (Microcal Software, Northampton, Mass.).

Assay [2] addresses T1, HIV-1 myrMA. The format is binding. Also noted: mediated by the matrix (MA) domain of Gag, a 132-residue polypeptide containing an N-terminal myristyl group; made in house. The note with it: for Kd: fit to 1:1 binding isotherms, read-out: dissociation constant (Kd). The method, then: as §1, §2

Where “and” joins values, the source holds several entries; their conditions need not be identical. Identical values can stand only once. Like-named read-outs stand apart in the source and are kept apart here.

In the case of “phosphatidylinositol (PI)4,5-bisphosphate [PI(4,5)P2]”, the “binding to myrMA (changes in NMR spectra upon titration)” value on HIV-1 myrMA [1] was “binds directly”. Moreover, the “triggering of myristate exposure” value at HIV-1 myrMA [1] (myrMA) is recorded as “triggers myristate exposure”.

Take PI(3)P: on HIV-1 myrMA [1], the “binding to myrMA (changes in NMR spectra upon titration)” value was “do not bind MA with significant affinity”. For the same compound, the “triggering of myristate exposure” value on HIV-1 myrMA [1] (myrMA) is listed as “do not bind MA with significant affinity or trigger myristate exposure”.

For `CCCC(=O)OCC(COP(=O)(O)OC1C(O)C(OP(=O)(O)O)C(O)C(OP(=O)(O)O)C1O)OC(=O)CCC` (stereo not drawn) [di-C4-PI(3,5)P2], on HIV-1 myrMA [1], the “binding to myrMA (changes in NMR spectra upon titration)” value is on record as “does not bind”. The “triggering of myristate exposure” value on HIV-1 myrMA [1] (myrMA) is on record as “does not bind myrMA or trigger myristate exposure”.

Consider `CCCC(=O)OC[C@H](COP(=O)(O)OC1[C@H](O)[C@H](O)C(O)[C@H](O)[C@H]1O)OC(=O)CCC` (stereo partly drawn) [di-C4-PI], for which, at HIV-1 myrMA [1], the “binding to myrMA (changes in NMR spectra upon titration)” value is “No detectable changes”.

Consider PI(4)P, for which the “binding to myrMA (changes in NMR spectra upon titration)” value on HIV-1 myrMA [1] is listed as “do not bind MA with significant affinity”. The “triggering of myristate exposure” value on HIV-1 myrMA [1] (myrMA) is “do not bind MA with significant affinity or trigger myristate exposure”.

Regarding `CCCC(=O)OCC(COP(=O)(O)OC1C(O)C(O)C(O)C(OP(=O)(O)O)C1O)OC(=O)CCC` (stereo not drawn) [di-C4-PI(5)P], the “binding to myrMA (changes in NMR spectra upon titration)” value at HIV-1 myrMA [1] is recorded as “No detectable changes”.

With `CCCC(=O)OC[C@H](COP(=O)(O)O[C@H]1[C@H](O)[C@@H](OP(=O)(O)O)[C@H](OP(=O)(O)O)[C@@H](OP(=O)(O)O)[C@H]1O)OC(=O)CCC` [di-C4-PI(3,4,5)P3], on HIV-1 myrMA [1] (myrMA), the “triggering of myristate exposure” value is on record as “triggers myristate exposure” and the dissociation constant (Kd) is 81 ± 18 µM.

As for `CCCC(=O)OC[C@H](COP(=O)([O-])OCC[N+](C)(C)C)OC(=O)CCC` [di-C4-phosphatidylcholine], at HIV-1 myrMA [1], the “binding to myrMA (changes in NMR spectra upon titration)” value is given as “does not bind”.

As to PI(3,5)P2, on HIV-1 myrMA [1], the “binding to myrMA (changes in NMR spectra upon titration)” value is reported as “do not bind MA with significant affinity”. The “triggering of myristate exposure” value at HIV-1 myrMA [1] (myrMA) was “do not bind MA with significant affinity or trigger myristate exposure”.

As to `CCCC(=O)OC[C@H](COP(=O)(O)O[C@@H]1[C@H](O)[C@H](OP(=O)(O)O)[C@@H](O)[C@H](O)[C@H]1O)OC(=O)CCC` [di-C4-PI(3)P], the “binding to myrMA (changes in NMR spectra upon titration)” value on HIV-1 myrMA [1] was “No detectable changes”.

Regarding PI(5)P, the “binding to myrMA (changes in NMR spectra upon titration)” value on HIV-1 myrMA [1] was “do not bind MA with significant affinity”.

Consider `CCCC(=O)OCC(COP(=O)(O)OC1C(O)C(O)C(OP(=O)(O)O)C(O)C1O)OC(=O)CCC` (stereo not drawn) [di-C4-PI(4)P], for which, at HIV-1 myrMA [1], the “binding to myrMA (changes in NMR spectra upon titration)” value was “No detectable changes”.

Take `CCCC(=O)OC[C@H](COP(=O)(O)O[C@@H]1[C@H](O)[C@H](O)[C@@H](OP(=O)(O)O)[C@H](OP(=O)(O)O)[C@H]1O)OC(=O)CCC` [di-C4-PI(4,5)P2, di-butyryl-PI(4,5)P2]: at HIV-1 myrMA [2], the Kd amounted to 240 ± 60 µM. At HIV-1 myrMA [1] (myrMA), the “triggering of myristate exposure” value was “causes extrusion of the myristyl group” and the dissociation constant Kd is 150 ± 30 µM. The “chemical-shift changes ΔδHN of group 1 residues” value at HIV-1 myrMA [1] (myrMA, upon addition of the lipid) is given as 0.1-0.8 ppm.

On to `CCCCCCCC(=O)OC[C@H](COP(=O)(O)O[C@@H]1[C@H](O)[C@H](O)[C@@H](OP(=O)(O)O)[C@H](OP(=O)(O)O)[C@H]1O)OC(=O)CCCCCCC` [di-C8-PI(4,5)P2, di-octyl-PI(4,5)P2], for which, on HIV-1 myrMA [2], the “affinity for myr(−)MA relative to di-C4-PI(4,5)P2” value is 3 fold and > 3 fold; the Kd was 83 ± 4 µM.

As a reminder, the Kd is the free concentration of one partner at which half of the binding sites on the other are occupied at equilibrium, for simple one-to-one binding.

The record behind these values is US8318419B2, “Antiviral screening method to identify inhibitors of phosphatidylinositol 4,5-bisphosphate [PI(4,5)P2] binding to the HIV gag matrix (MA) protein” (priority 2007, dated 2012).
